Laboratory results: paper PMC11111408, “Concurrent inhibition of oncogenic and wild-type RAS-GTP for cancer therapy” (Nature, 2024)

Tested on: PRISM DNA-barcoded human tumour cell lines
Assay: PRISM pooled cell viability assay;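 on PRISM AUC: 8 threefold dilutions from 10 µM with 5 days of exposure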
Format: cell-based
Parameters: AUC (PRISM viability) / AUC (PRISM): unit not given beside the values
Conditions: for AUC (PRISM viability): WT; for PRISM AUC: KRAS MUT
Experimental: Cells were then lysed in TCL mRNA lysis buffer, and then PCR with reverse transcription was performed. Detection of the barcodes and univariate and multivariate analysis was then performed as previously described. Data analysis is described in the Supplementary Methods. Up-to-date code for our analysis is at the github link: https://github.com/cmap/dockerized_mts.
For every gene with non-silent mutations in at least four cell-lines, we compared the AUC values between cells with and without those mutations using a t-test. This analysis was carried out for: (i) the full dataset; (ii) excluding cell lines with non-silent KRAS mutations; and (iii) excluding cell lines that have either KRAS or NRAS non-silent mutations.

## CCn1c(-c2cc(N3CCN(C4CC4)CC3)cnc2[C@H](C)OC)c2c3cc(ccc31)-c1csc(n1)C[C@H](NC(=O)[C@H]1[C@@H]3COC[C@@H]31)C(=O)N1CCC[C@H](N1)C(=O)OCC(C)(C)C2 [RMC-7977]
HUG1N_STOMACH
  AUC (PRISM viability): 0.8055
HUH1_LIVER
  AUC (PRISM viability): 0.7529
HUH6_LIVER
  AUC (PRISM viability): 0.7376
HUH7_LIVER
  AUC (PRISM viability): 0.8557
HUH28_BILIARY_TRACT
  AUC (PRISM viability): 0.8029
HUPT3_PANCREAS
  PRISM AUC: 0.1666
HUPT4_PANCREAS
  PRISM AUC: 0.2071
IALM_LUNG
  PRISM AUC: 0.3346
IGR1_SKIN
  AUC (PRISM viability): 0.9019
IGR37_SKIN
  AUC (PRISM viability): 0.7982
IGR39_SKIN
  AUC (PRISM viability): 0.9854
IGROV1_OVARY
  AUC (PRISM viability): 0.7964
IM95_STOMACH
  AUC (PRISM viability): 0.4996
IPC298_SKIN
  AUC (PRISM viability): 0.1645
ISHIKAWAHERAKLIO02ER_ENDOMETRIUM
  AUC (PRISM viability): 0.7979
ISTMES2_PLEURA
  AUC (PRISM viability): 1
J82_URINARY_TRACT
  AUC (PRISM viability): 0.7456
JEKO1_HAEMATOPOIETIC_AND_LYMPHOID_TISSUE
  AUC (PRISM viability): 0.8585
JHH1_LIVER
  AUC (PRISM viability): 0.2992
JHH4_LIVER
  AUC (PRISM viability): 0.7822
JHH5_LIVER
  AUC (PRISM viability): 0.337
JHH6_LIVER
  AUC (PRISM viability): 0.6328
JHH7_LIVER
  AUC (PRISM viability): 0.6689
JHOC5_OVARY
  AUC (PRISM viability): 0.6127
JHOM1_OVARY
  AUC (PRISM viability): 0.7183
JHOS2_OVARY
  AUC (PRISM viability): 0.6659
JHUEM2_ENDOMETRIUM
  AUC (PRISM viability): 0.722
JIMT1_BREAST
  AUC (PRISM viability): 0.6067
JJN3_HAEMATOPOIETIC_AND_LYMPHOID_TISSUE
  AUC (PRISM viability): 0.5546
JL1_PLEURA
  AUC (PRISM viability): 0.8348
JM1_HAEMATOPOIETIC_AND_LYMPHOID_TISSUE
  AUC (PRISM viability): 0.8697
JMSU1_URINARY_TRACT
  AUC (PRISM viability): 0.7968
JURKAT_HAEMATOPOIETIC_AND_LYMPHOID_TISSUE
  AUC (PRISM viability): 1
JURLMK1_HAEMATOPOIETIC_AND_LYMPHOID_TISSUE
  AUC (PRISM viability): 0.263
JVM3_HAEMATOPOIETIC_AND_LYMPHOID_TISSUE
  AUC (PRISM viability): 0.6896
K029AX_SKIN
  AUC (PRISM viability): 0.9507
K562_HAEMATOPOIETIC_AND_LYMPHOID_TISSUE
  AUC (PRISM viability): 0.4372
KALS1_CENTRAL_NERVOUS_SYSTEM
  AUC (PRISM viability): 0.7464
KARPAS299_HAEMATOPOIETIC_AND_LYMPHOID_TISSUE
  AUC (PRISM viability): 0.6122
KARPAS620_HAEMATOPOIETIC_AND_LYMPHOID_TISSUE
  PRISM AUC: 0.3529
KATOIII_STOMACH
  AUC (PRISM viability): 0.4955
KCL22_HAEMATOPOIETIC_AND_LYMPHOID_TISSUE
  AUC (PRISM viability): 0.4527
KE37_HAEMATOPOIETIC_AND_LYMPHOID_TISSUE
  AUC (PRISM viability): 0.4418
KE39_STOMACH
  AUC (PRISM viability): 0.6732
KELLY_AUTONOMIC_GANGLIA
  AUC (PRISM viability): 0.7861
KHM1B_HAEMATOPOIETIC_AND_LYMPHOID_TISSUE
  PRISM AUC: 0.496
KLE_ENDOMETRIUM
  AUC (PRISM viability): 0.8932
KMBC2_URINARY_TRACT
  AUC (PRISM viability): 0.2167
KMH2_HAEMATOPOIETIC_AND_LYMPHOID_TISSUE
  AUC (PRISM viability): 0.7624
KMRC1_KIDNEY
  AUC (PRISM viability): 1
KMRC3_KIDNEY
  AUC (PRISM viability): 0.8631
KMRC20_KIDNEY
  AUC (PRISM viability): 0.5322
KMS11_HAEMATOPOIETIC_AND_LYMPHOID_TISSUE
  AUC (PRISM viability): 0.6264
KMS18_HAEMATOPOIETIC_AND_LYMPHOID_TISSUE
  AUC (PRISM viability): 0.2086
KMS27_HAEMATOPOIETIC_AND_LYMPHOID_TISSUE
  AUC (PRISM viability): 0.3359
KMS34_HAEMATOPOIETIC_AND_LYMPHOID_TISSUE
  AUC (PRISM viability): 0.4857
KNS42_CENTRAL_NERVOUS_SYSTEM
  AUC (PRISM viability): 0.8285
KNS60_CENTRAL_NERVOUS_SYSTEM
  AUC (PRISM viability): 0.8415
KNS62_LUNG
  AUC (PRISM viability): 0.4354
KNS81_CENTRAL_NERVOUS_SYSTEM
  AUC (PRISM viability): 0.5354
KOPN8_HAEMATOPOIETIC_AND_LYMPHOID_TISSUE
  PRISM AUC: 0.2801
KP2_PANCREAS
  PRISM AUC: 0.2975
KP3_PANCREAS
  PRISM AUC: 0.3778
KP4_PANCREAS
  PRISM AUC: 0.4423
KS1_CENTRAL_NERVOUS_SYSTEM
  AUC (PRISM viability): 0.4806
KU1919_URINARY_TRACT
  AUC (PRISM viability): 0.2273
